Legend:
Assay type in all cases: biochemical
recombinant human DDAHII = target: T1, recombinant human DDAHII (Homo sapiens, UniProt O95865); test: DDAH assay, [14C]L-NMMA to [14C]citrulline, lysates of E. coli expressing recombinant human DDAHII; conditions: E. coli lysate, 37° C., 60 min, pH 6.5; for effect of competition on metabolism of [14C] L-NMMA by recombinant DDAHII: molar excess of cold competitor
T1 construct: The entire human DDAHII open reading frame was PCR amplified from oligo dT primed human kidney cDNA; made in house; host or cells: E. coli DH5α, soluble fraction of the lysate, not purified
T1 sequence (O95865 1-285): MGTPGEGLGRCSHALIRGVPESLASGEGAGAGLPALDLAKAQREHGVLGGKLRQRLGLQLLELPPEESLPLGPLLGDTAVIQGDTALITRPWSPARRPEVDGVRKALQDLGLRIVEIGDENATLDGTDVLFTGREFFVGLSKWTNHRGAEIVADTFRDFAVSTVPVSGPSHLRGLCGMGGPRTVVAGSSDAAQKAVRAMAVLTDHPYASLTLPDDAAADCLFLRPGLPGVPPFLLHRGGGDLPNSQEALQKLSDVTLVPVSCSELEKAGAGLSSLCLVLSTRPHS
Description: The entire human DDAHII open reading frame was PCR amplified from oligo dT primed human kidney cDNA using oligos HDDAHII.1 and HDDAHII.2. Oligo HDDAH II.1 is complementary to base pairs 2-15 of the human DDAHII cDNA and contains an EcoRI site in frame with the EcoTI site of pPROX.HTa (Life Technologies). HDDAHI.2 is complementary to base pairs 858-840 of the human DDAHII cDNA and contains an artificial XbaI site. PCR produced a single product of ˜850 bp which was digested with EcoRI and Xbai, ligated into EcoRI and XbaI digested pRPROX.HTa and transformed into compotent E.coli DH5α. A positive clone (pPDDAHII) containing an insert of 858 bp was identified and the insert sequenced on both stands. For expression of recombinant human DDAHII, E.coli were grown in liquid culture at 25 ° C. to an OD600 of 0.5-0.6. Expression was then induced by the addition of IPTG to a final concentration of 1 mM and incubation continued for a further two hours. Following induction, cells were collected by centrifugation, weighed and resuspended in ice cold assay buffer (100 mM Na2HPO4 pH 6.5) at 1 g cells/ml. Cells were disrupted by sonication (6×10 secs, with 10 sec. intervals) and centriguged at 50,000 g to separate soluble material from insoluble cell debris.
Aliquots of E.coli lysates were incubated at 37° C. for 60 min. with […] of 100 mM Na2HPO4 pH 6.5 containing 0.02 μCi [^14C]L-NMMA as described previously (MacAllister et al., 1996, Br. J. Pharmacol. 115, 1001-1004). Following incubation samples were prepared for determination of [^14C] citrulline production by scintillation counting. Reactions were vortexed with 1 ml of 50% (w/v) dowex 50X8-400, centrifuged at 10,000 g for 5 min and then 500 μl of the supernatant was mixed with 5 ml of liquid scintillation fluid and the [^14C] content determined.

[1] = system: S. coelicolor DDAH (ScDDAH); test: DDAH assay, cell lysates containing recombinant S. coelicolor DDAH; conditions: 10 mM
Method: (§1) The effect of 10 mM ADMA and SDMA on recombinant ScDDAH and paDDAH was studied using the assay conditions described in the material and methods section below. Assays were carried out in triplicate on aliquots of cell lysates containing empty vector, scDDAH cDNA or paDDAH cDNA and data was expressed as a mean of the total number of replicates after subtraction of background. The results shown are the mean of three independent experiments.
(§2) Samples were assayed by incubating 100 μl of cells lysates with an equal volume of assay mix (100 mM Na2HPO4 pH 6.5, containing 0.02 μCi [^14C] L-NMMA and 100 μM cold L-NMMA) at 37° C. for 60 min, as previously reported. The samples were then prepared for scintillation counting to measure the production of [^14C] citrulline by adding 400 μl of 50% (w/v) Dowex 50X-400 to the reactions, vortexing and centrifugation at 13000 g for 2 min. The [^14C] content of 100 μl of supernatant in 1 ml scintillation fluid was then determined.
(§3) For expression of the recombinant proteins, a positive clone was picked and grown in liquid media supplemented with 100 μg/ml ampicillin. […]

[2] = target: T2, P. aeruginosa DDAH (PaDDAH) (Pseudomonas aeruginosa, UniProt Q9I4E3); test: DDAH assay, cell lysates containing recombinant P. aeruginosa DDAH; conditions: 10 mM
T2 construct: The inserts containing the open reading frames of the bacterial DDAHs were excised from the vector; made in house; host or cells: E. coli DH5α, cell lysate
Method: as §1, §2, §3

T2 sequence (Q9I4E3 whole entry): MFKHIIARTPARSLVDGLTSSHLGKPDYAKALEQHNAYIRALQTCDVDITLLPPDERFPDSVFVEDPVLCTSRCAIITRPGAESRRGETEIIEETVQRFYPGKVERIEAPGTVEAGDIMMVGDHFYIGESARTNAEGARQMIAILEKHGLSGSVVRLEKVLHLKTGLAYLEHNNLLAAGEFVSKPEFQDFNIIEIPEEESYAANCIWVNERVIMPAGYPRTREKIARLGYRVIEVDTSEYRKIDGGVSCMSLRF

## CNC(=N)NCC[C@H](N)C(=O)O [4124W, S-2-amino-4(3-methylguanidino)butanoic acid]
Recombinant human DDAHII
  effect of DDAH inhibitor on metabolism of [14C] L-NMMA by recombinant DDAHII: inhibited

## CN(C)C(N)=NCCC[C@H](N)C(=O)O [ADMA, N^GN′^G dimethyl-L-arginine]
[1]; ADMA compared with SDMA, ScDDAH
  relative effect on the metabolism of L-NMMA: greater effect than SDMA
[1]; ScDDAH cell lysate, FIG. 7
  competition with L-NMMA as substrate (metabolism of [14C] L-NMMA): compete with L-NMMA as substrates
Recombinant human DDAHII
  effect of competition on metabolism of [14C] L-NMMA by recombinant DDAHII: inhibited
[2]; ADMA compared with SDMA, PaDDAH
  relative effect on the metabolism of L-NMMA: greater effect than SDMA
[2]; PaDDAH cell lysate, FIG. 7
  competition with L-NMMA as substrate (metabolism of [14C] L-NMMA): compete with L-NMMA as substrates

## CNC(=N)NCCC[C@H](N)C(=O)O [L-NMMA, N^G monomethyl-L-arginine]
Recombinant human DDAHII
  effect of competition on metabolism of [14C] L-NMMA by recombinant DDAHII: inhibited

## NC(=O)NCCC[C@H](N)C(=O)O [citrulline]
Recombinant human DDAHII
  effect of competition on metabolism of [14C] L-NMMA by recombinant DDAHII: inhibited
